# According to the supplement of paper PMC10307832:
# Experiments:
# Assay in all cases: relative viability (nuclei count vs DMSO), 5 days (fraction); higher = more cells survive
# SW 1573 = tested on: SW 1573
# Procedure, shortened: (§1)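 Relative viability divides the nuclei count in treated wells by that in vehicle wells. Lung cancer cell lines were seeded in 1536-well plates, dosed by pin tool the next day, and fixed and stained after 5 days in one step with final 0.05% Triton X-100, 1% formaldehyde and 1 ug/ml Hoechst. Dosing was a single drug or a fixed anchor-drug dose plus five library-drug doses (not always all listed) in √10 steps, and values are medians of duplicate plates imaged at 4×.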
# SW 900 = tested on: SW 900
# Procedure, shortened: as §1
# NCI-H838 = tested on: NCI-H838
# Procedure, shortened: as §1
# UMC-11 = tested on: UMC-11
# Procedure, shortened: as §1
# NCI-H23 = tested on: NCI-H23
# Procedure, shortened: as §1
# NCI-H2023 = tested on: NCI-H2023
# Procedure, shortened: as §1
# LC-2-ad = tested on: LC-2-ad
# Procedure, shortened: as §1
# NCI-H1975 = tested on: NCI-H1975
# Procedure, shortened: as §1
# NCI-H1651 = tested on: NCI-H1651
# Procedure, shortened: as §1
# NCI-H2009 = tested on: NCI-H2009
# Procedure, shortened: as §1
# NCI-H650 = tested on: NCI-H650
# Procedure, shortened: as §1
# NCI-H1650 = tested on: NCI-H1650
# Procedure, shortened: as §1
# EPLC-272H = tested on: EPLC-272H
# Procedure, shortened: as §1
# HARA = tested on: HARA
# Procedure, shortened: as §1
# NCI-H2228 = tested on: NCI-H2228
# Procedure, shortened: as §1
# NCI-H2087 = tested on: NCI-H2087
# Procedure, shortened: as §1
# NCI-H2170 = tested on: NCI-H2170
# Procedure, shortened: as §1
# LOU-NH91 = tested on: LOU-NH91
# Procedure, shortened: as §1
# NCI-H2085 = tested on: NCI-H2085
# Procedure, shortened: as §1
# NCI-H441 = tested on: NCI-H441
# Procedure, shortened: as §1
# PC-3 [JPC-3] = tested on: PC-3 [JPC-3]
# Procedure, shortened: as §1
# H3255 = tested on: H3255
# Procedure, shortened: as §1
smiles,measurement,setting,value
Cc1csc(=NC2CCCCC2)n1/N=C/c1ccc(O)c(O)c1O [MIM1] + Nc1nc2[nH]cc(CCc3ccc(C(=O)N[C@@H](CCC(=O)O)C(=O)O)cc3)c2c(=O)[nH]1 [Pemetrexed] (partner 0.2 µM),relative viability,SW 1573; first compound 0.2 µM,0.851
same,relative viability,SW 1573; first compound 0.6325 µM,0.93
same,relative viability,SW 1573; first compound 2 µM,0.877
same,relative viability,SW 1573; first compound 6.325 µM,0.791
same,relative viability,SW 1573; first compound 20 µM,0.18
same,relative viability,SW 900; first compound 0.2 µM,0.504
same,relative viability,SW 900; first compound 0.6325 µM,0.465
same,relative viability,SW 900; first compound 2 µM,0.499
same,relative viability,SW 900; first compound 6.325 µM,0.349
same,relative viability,SW 900; first compound 20 µM,0.178
same,relative viability,NCI-H838; first compound 0.2 µM,0.244
same,relative viability,NCI-H838; first compound 0.6325 µM,0.376
same,relative viability,NCI-H838; first compound 2 µM,0.243
same,relative viability,NCI-H838; first compound 6.325 µM,0.269
same,relative viability,NCI-H838; first compound 20 µM,0.226
same,relative viability,UMC-11; first compound 0.2 µM,0.721
same,relative viability,UMC-11; first compound 0.6325 µM,0.848
same,relative viability,UMC-11; first compound 2 µM,0.815
same,relative viability,UMC-11; first compound 6.325 µM,0.739
same,relative viability,UMC-11; first compound 20 µM,0.369
same,relative viability,NCI-H23; first compound 0.2 µM,0.667
same,relative viability,NCI-H23; first compound 0.6325 µM,0.469
same,relative viability,NCI-H23; first compound 2 µM,0.717
same,relative viability,NCI-H23; first compound 6.325 µM,0.5
same,relative viability,NCI-H23; first compound 20 µM,0.204
same,relative viability,NCI-H2023; first compound 0.2 µM,0.235
same,relative viability,NCI-H2023; first compound 0.6325 µM,0.337
same,relative viability,NCI-H2023; first compound 2 µM,0.219
same,relative viability,NCI-H2023; first compound 6.325 µM,0.098
same,relative viability,NCI-H2023; first compound 20 µM,0.0763
same,relative viability,LC-2-ad; first compound 0.2 µM,0.293
same,relative viability,LC-2-ad; first compound 0.6325 µM,0.292
same,relative viability,LC-2-ad; first compound 2 µM,0.287
same,relative viability,LC-2-ad; first compound 6.325 µM,0.268
same,relative viability,LC-2-ad; first compound 20 µM,0.232
same,relative viability,NCI-H1975; first compound 0.2 µM,0.289
same,relative viability,NCI-H1975; first compound 0.6325 µM,0.317
same,relative viability,NCI-H1975; first compound 2 µM,0.28
same,relative viability,NCI-H1975; first compound 6.325 µM,0.223
same,relative viability,NCI-H1975; first compound 20 µM,0.187
same,relative viability,NCI-H1651; first compound 0.2 µM,0.57
same,relative viability,NCI-H1651; first compound 0.6325 µM,0.443
same,relative viability,NCI-H1651; first compound 2 µM,0.564
same,relative viability,NCI-H1651; first compound 6.325 µM,0.476
same,relative viability,NCI-H1651; first compound 20 µM,0.558
same,relative viability,NCI-H2009; first compound 0.2 µM,1.03
same,relative viability,NCI-H2009; first compound 0.6325 µM,1.05
same,relative viability,NCI-H2009; first compound 2 µM,1.09
same,relative viability,NCI-H2009; first compound 6.325 µM,0.916
same,relative viability,NCI-H2009; first compound 20 µM,0.884
same,relative viability,NCI-H650; first compound 0.2 µM,1.07
same,relative viability,NCI-H650; first compound 0.6325 µM,1
same,relative viability,NCI-H650; first compound 2 µM,0.934
same,relative viability,NCI-H650; first compound 6.325 µM,0.89
same,relative viability,NCI-H650; first compound 20 µM,0.282
same,relative viability,NCI-H1650; first compound 0.2 µM,0.341
same,relative viability,NCI-H1650; first compound 0.6325 µM,0.393
same,relative viability,NCI-H1650; first compound 2 µM,0.363
same,relative viability,NCI-H1650; first compound 6.325 µM,0.191
same,relative viability,NCI-H1650; first compound 20 µM,0.202
same,relative viability,EPLC-272H; first compound 0.2 µM,0.328
same,relative viability,EPLC-272H; first compound 0.6325 µM,0.372
same,relative viability,EPLC-272H; first compound 2 µM,0.27
same,relative viability,EPLC-272H; first compound 6.325 µM,0.157
same,relative viability,EPLC-272H; first compound 20 µM,0.166
same,relative viability,HARA; first compound 0.2 µM,0.22
same,relative viability,HARA; first compound 0.6325 µM,0.261
same,relative viability,HARA; first compound 2 µM,0.237
same,relative viability,HARA; first compound 6.325 µM,0.234
same,relative viability,HARA; first compound 20 µM,0.149
same,relative viability,NCI-H2228; first compound 0.2 µM,0.386
same,relative viability,NCI-H2228; first compound 0.6325 µM,0.345
same,relative viability,NCI-H2228; first compound 2 µM,0.347
same,relative viability,NCI-H2228; first compound 6.325 µM,0.168
same,relative viability,NCI-H2228; first compound 20 µM,0.152
same,relative viability,NCI-H2087; first compound 0.2 µM,0.593
same,relative viability,NCI-H2087; first compound 0.6325 µM,0.724
same,relative viability,NCI-H2087; first compound 2 µM,0.729
same,relative viability,NCI-H2087; first compound 6.325 µM,0.601
same,relative viability,NCI-H2087; first compound 20 µM,0.644
same,relative viability,NCI-H2170; first compound 0.2 µM,0.265
same,relative viability,NCI-H2170; first compound 0.6325 µM,0.252
same,relative viability,NCI-H2170; first compound 2 µM,0.247
same,relative viability,NCI-H2170; first compound 6.325 µM,0.254
same,relative viability,NCI-H2170; first compound 20 µM,0.215
same,relative viability,LOU-NH91; first compound 0.2 µM,0.335
same,relative viability,LOU-NH91; first compound 0.6325 µM,0.466
same,relative viability,LOU-NH91; first compound 2 µM,0.383
same,relative viability,LOU-NH91; first compound 6.325 µM,0.403
same,relative viability,LOU-NH91; first compound 20 µM,0.285
same,relative viability,NCI-H2085; first compound 0.2 µM,0.903
same,relative viability,NCI-H2085; first compound 0.6325 µM,0.873
same,relative viability,NCI-H2085; first compound 2 µM,0.885
same,relative viability,NCI-H2085; first compound 6.325 µM,0.777
same,relative viability,NCI-H2085; first compound 20 µM,0.833
same,relative viability,NCI-H441; first compound 0.2 µM,0.259
same,relative viability,NCI-H441; first compound 0.6325 µM,0.27
same,relative viability,NCI-H441; first compound 2 µM,0.256
same,relative viability,NCI-H441; first compound 6.325 µM,0.232
same,relative viability,NCI-H441; first compound 20 µM,0.159
same,relative viability,PC-3 [JPC-3]; first compound 0.2 µM,1.18
same,relative viability,PC-3 [JPC-3]; first compound 0.6325 µM,1.04
same,relative viability,PC-3 [JPC-3]; first compound 2 µM,1.14
same,relative viability,PC-3 [JPC-3]; first compound 6.325 µM,0.948
same,relative viability,PC-3 [JPC-3]; first compound 20 µM,0.485
same,relative viability,H3255; first compound 0.2 µM,0.539
same,relative viability,H3255; first compound 0.6325 µM,0.553
same,relative viability,H3255; first compound 2 µM,0.532
same,relative viability,H3255; first compound 6.325 µM,0.556
same,relative viability,H3255; first compound 20 µM,0.312
